In assay [1] the test system is CD34+ bone marrow progenitor cells. The conditions noted are these: for increase in F-cells over untreated cultures, combination with HU: in combination with 5 μM HU, Phase II only (FIG. 3B).
A further assay relates to γ-globin. The experiment in a line: γ-globin mRNA expression by quantitative PCR in K562 cells. Type of assay: cell-based, human. The note with it: 3 days, HPI-6 plus 100 μM HU (FIG. 1A). The procedure:
For studies utilizing the human erythroleukemia K562 cell line (ATCC), cells were grown and cultured in complete medium (RPM1 1640, 10% fetal calf serum (FCS), 100 U/ml penicillin and 0.1 mg/ml streptomycin) in a humidified incubator at 37° C., 95% air, 5% CO2. HPIs were titrated into duplicate cultures at dosage levels spanning more than 100-fold differences in concentration, and incubated from 24 to 96 hours prior to harvesting and quantitation of F-cells and HbF levels by flow cytometry.
Each PCR run included a standard curve and water blank. In addition, a melt curve was run after completion of each PCR run to assess the specificity of the amplification, γ-globin gene expression was normalized relative to the expression level of 18S ribosomal RNA for each sample.

As for `O=C(O)CNC(=O)c1nc(Cl)c2ccccc2c1O` [HPI-1, N-((1-chloro-4-hydroxy-isoquinoline-3-carbonyl)-amino)-acetic acid], the “HbF expression together with HU” value in assay [1] (20 μM HPI-1 with HU (FIGS. 5A, 5B)) was “additive to the effects of HU”. The “HbF expression compared to vehicle control (percent F-cells or MFI for HbF)” value in assay [1] (20 μM, triplicate (FIGS. 5A, 5B)) is given as “increased HbF expression”. Further, in assay [1], the “increase in F-cells over untreated cultures, combination with HU” value is 58%.

With `O=C(O)CNC(=O)c1ncc2cc(Sc3ccccc3)ccc2c1O` [HPI-6, [(4-Hydroxy-7-phenylsulfanyl-isoquinoline-3-carbonyl)-amino]-acetic acid], the “γ-globin expression with added hydroxyurea” value with γ-globin is “augmented”.

Consider `O=C(O)CNC(=O)c1ncc2cc(Br)ccc2c1O` [HPI-2, [(7-Bromo-4-hydroxy-isoquinoline-3-carbonyl)-amino]-acetic acid], for which the “increase in F-cells over untreated cultures, combination with HU” value in assay [1] is reported as 29%.

These data come from patent publication US20070185045A1, “Inhibitors of 2-oxoglutarate dioxygenase as gamma globin inducers” (priority 2006, published 2007).
